Measurements as given in patent publication US9833497B2, “Human originated EGF domain proteins and use of the same” (CHENGDU SOURCEBIO LIMITED-LIABILITY COMPANY, priority 2013, dated 2017).

Columns and labels:
Assay type in all cases: cell-based
[1] = test system: Serratia marcescens; assay: MIC against Gram-negative bacteria: Serratia marcescens; details: 10 h cultivation at 37° C.; for MIC against S. marcescens: Serratia marcescens; for MIC (μg/mL) S. marcescens / MIC: S. marcescens
Summary of the method: (§1)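 Read-out is absence of bacterial growth, with MIC set at the lowest recombinant protein concentration achieving it. Bacteria, pre-grown in LB to McFarland 0.5 and resuspended, were exposed at 5×10^5 CFU/mL to two-fold diluted human EGF domain proteins in triplicate at 37° C, 175 rpm.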

[2] = test system: Enterobacter cloacae; assay: MIC against Gram-negative bacteria: Enterobacter cloacae; details: 10 h cultivation at 37° C.; for MIC against E. cloacae: Enterobacter cloacae; for MIC (μg/mL) E. cloacae / MIC: E. cloacae
Summary of the method: as §1

[3] = test system: Pseudomonas aeruginosa; assay: MIC against Gram-negative bacteria: Pseudomonas aeruginosa; details: 10 h cultivation at 37° C.; for MIC against P. aeruginosa: Pseudomonas aeruginosa; for MIC (μg/mL) P. aeruginosa / MIC: P. aeruginosa
Summary of the method: as §1

[4] = test system: E. coli BL21; assay: MIC against Gram-negative bacteria: E. coli BL21; details: 10 h cultivation at 37° C.; for MIC (μg/mL) E. coli BL21 / MIC against E. coli BL21 / MIC: E. coli BL21
Summary of the method: as §1

[5] = test system: Moraxella catarrhalis; assay: MIC against Gram-negative bacteria: Moraxella catarrhalis; details: 10 h cultivation at 37° C.; for MIC against M. catarrhalis: Moraxella catarrhalis; for MIC (μg/mL) M. catarrhalis / MIC: M. catarrhalis
Summary of the method: as §1

[6] = test system: Aeromonas hydrophila; assay: MIC against Gram-negative bacteria: Aeromonas hydrophila; details: 10 h cultivation at 37° C.; for MIC against A. hydrophila: Aeromonas hydrophila; for MIC (μg/mL) A. hydrophila / MIC: A. hydrophila
Summary of the method: as §1

[7] = test system: Citrobacter diversus; assay: MIC against Gram-negative bacteria: Citrobacter diversus; details: 10 h cultivation at 37° C.; for MIC against C. diversus: Citrobacter diversus; for MIC (μg/mL) C. diversus / MIC: C. diversus
Summary of the method: as §1

[8] = test system: Proteus vulgaris; assay: MIC against Gram-negative bacteria: Proteus vulgaris; details: 10 h cultivation at 37° C.; for MIC against P. vulgaris: Proteus vulgaris; for MIC (μg/mL) P. vulgaris / MIC: P. vulgaris
Summary of the method: as §1

[9] = test system: E. coli DH5α; assay: Antibacterial activity: MIC and growth curve against E. coli DH5α in 96-well plate; details: minimal inhibitory concentration against E. coli DH5α; 96-well plate, 5×10^5 CFU/mL, 37° C., judged after 8 h
Summary of the method: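 Log-phase bacteria (OD600 ~0.5) resuspended in LB at 5×10^5 CFU/mL, exposed to recombinant protein at 50, 25, 12.5 μg/mL final in triplicate, 37 °C shaking at 175 rpm. OD600 read every 30 min; MIC is lowest concentration showing no growth.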

[10] = test system: Proteus mirabilis; assay: MIC against Gram-negative bacteria: Proteus mirabilis; details: 10 h cultivation at 37° C.; for MIC against P. mirabilis: Proteus mirabilis; for MIC (μg/mL) P. mirabilis / MIC: P. mirabilis
Summary of the method: as §1

[11] = test system: Klebsiella pneumonia; assay: MIC against Gram-negative bacteria: Klebsiella pneumonia; details: 10 h cultivation at 37° C.; for MIC against K. pneumonia: Klebsiella pneumonia; for MIC (μg/mL) K. pneumonia / MIC: K. pneumonia
Summary of the method: as §1

[12] = 5×10^5 CFU/mL, two-fold serial dilution

## PRT855 (DVDECATGRASCPRFRQCVNTFGSYICKCHKGFDLMYIGGKYQCH; listed as Homo sapiens)
[1]; 5×10^5 CFU/mL
  MIC (μg/mL) S. marcescens: 12.5 µg/mL
[2]; 5×10^5 CFU/mL
  MIC (μg/mL) E. cloacae: 12.5 µg/mL
[3]; 5×10^5 CFU/mL
  MIC (μg/mL) P. aeruginosa: 50 µg/mL
[4]; 5×10^5 CFU/mL
  MIC (μg/mL) E. coli BL21: 12.5 µg/mL
[5]; 5×10^5 CFU/mL
  MIC (μg/mL) M. catarrhalis: 12.5 µg/mL
[6]; 5×10^5 CFU/mL
  MIC (μg/mL) A. hydrophila: 50 µg/mL
[7]; 5×10^5 CFU/mL
  MIC (μg/mL) C. diversus: 12.5 µg/mL
[8]; 5×10^5 CFU/mL
  MIC (μg/mL) P. vulgaris: 12.5 µg/mL
[9]
  MIC: 50 µg/mL
[10]; 5×10^5 CFU/mL
  MIC (μg/mL) P. mirabilis: 12.5 µg/mL
[11]; 5×10^5 CFU/mL
  MIC (μg/mL) K. pneumonia: 25 µg/mL

## PRT1383 (GTRSCPWDCGEGGRCVDGRCVCWPGYTGEDC; listed as Homo sapiens)
[1]; 5×10^5 CFU/mL
  MIC against S. marcescens: 50 µg/mL
[2]; 5×10^5 CFU/mL
  MIC against E. cloacae: 12.5 µg/mL
[3]; 5×10^5 CFU/mL
  MIC against P. aeruginosa: 12.5 µg/mL
[4]; 5×10^5 CFU/mL
  MIC against E. coli BL21: 12.5 µg/mL
[5]; 5×10^5 CFU/mL
  MIC against M. catarrhalis: 12.5 µg/mL
[6]; 5×10^5 CFU/mL
  MIC against A. hydrophila: 50 µg/mL
[7]; 5×10^5 CFU/mL
  MIC against C. diversus: 25 µg/mL
[8]; 5×10^5 CFU/mL
  MIC against P. vulgaris: 12.5 µg/mL
[9]
  MIC: 12.5 µg/mL
[10]; 5×10^5 CFU/mL
  MIC against P. mirabilis: 50 µg/mL
[11]; 5×10^5 CFU/mL
  MIC against K. pneumonia: 25 µg/mL

## PRT398 (DDNECHAQPDLCVNGRCVNTAGSFRCDCDEGFQPSPTLTECH; listed as Homo sapiens)
[1]; 5×10^5 CFU/mL
  MIC: 100 µg/mL
[2]; 5×10^5 CFU/mL
  MIC: 50 µg/mL
[3]; 5×10^5 CFU/mL
  MIC: 50 µg/mL
[4]; 5×10^5 CFU/mL
  MIC: 12.5 µg/mL
[5]; 5×10^5 CFU/mL
  MIC: 12.5 µg/mL
[6]; 5×10^5 CFU/mL
  MIC: 12.5 µg/mL
[7]; 5×10^5 CFU/mL
  MIC: 50 µg/mL
[8]; 5×10^5 CFU/mL
  MIC: 12.5 µg/mL
[9]
  MIC: 50 µg/mL
[10]; 5×10^5 CFU/mL
  MIC: 12.5 µg/mL
[11]; 5×10^5 CFU/mL
  MIC: 12.5 µg/mL

## PRT779 (VSPCSRGYCDHGGQCQHLPSGPRCSCVSFSIYTAWGEHCE; listed as Homo sapiens)
[1]; 5×10^5 CFU/mL
  MIC (μg/mL) S. marcescens: 50 µg/mL
[2]; 5×10^5 CFU/mL
  MIC (μg/mL) E. cloacae: 50 µg/mL
[3]; 5×10^5 CFU/mL
  MIC (μg/mL) P. aeruginosa: 50 µg/mL
[4]; 5×10^5 CFU/mL
  MIC (μg/mL) E. coli BL21: 12.5 µg/mL
[5]; 5×10^5 CFU/mL
  MIC (μg/mL) M. catarrhalis: 12.5 µg/mL
[6]; 5×10^5 CFU/mL
  MIC (μg/mL) A. hydrophila: 12.5 µg/mL
[7]; 5×10^5 CFU/mL
  MIC (μg/mL) C. diversus: 50 µg/mL
[8]; 5×10^5 CFU/mL
  MIC (μg/mL) P. vulgaris: 12.5 µg/mL
[9]
  MIC: 12.5 µg/mL
[10]; 5×10^5 CFU/mL
  MIC (μg/mL) P. mirabilis: 50 µg/mL
[11]; 5×10^5 CFU/mL
  MIC (μg/mL) K. pneumonia: 12.5 µg/mL

## PRT968 (LEDPCHSGPCAGRGVCQSSVVAGTARFSCRCPRGFRGPDCS; listed as Homo sapiens)
[1]
  MIC: 12.5 µg/mL
[2]
  MIC: 25 µg/mL
[3]
  MIC: 25 µg/mL
[4]
  MIC: 12.5 µg/mL
[5]
  MIC: 25 µg/mL
[6]
  MIC: 25 µg/mL
[7]
  MIC: 12.5 µg/mL
[8]
  MIC: 25 µg/mL
[9]
  MIC: 25 µg/mL
[10]
  MIC: 50 µg/mL
[11]
  MIC: 12.5 µg/mL

## PRT1375 (SIRTCPSNCHGRGRCEEGRCLCDPGYTGPTC; listed as Homo sapiens)
[1]; 5×10^5 CFU/mL
  MIC against S. marcescens: 12.5 µg/mL
[2]; 5×10^5 CFU/mL
  MIC against E. cloacae: 12.5 µg/mL
[3]; 5×10^5 CFU/mL
  MIC against P. aeruginosa: 12.5 µg/mL
[4]; 5×10^5 CFU/mL
  MIC against E. coli BL21: 12.5 µg/mL
[5]; 5×10^5 CFU/mL
  MIC against M. catarrhalis: 25 µg/mL
[6]; 5×10^5 CFU/mL
  MIC against A. hydrophila: 25 µg/mL
[7]; 5×10^5 CFU/mL
  MIC against C. diversus: 12.5 µg/mL
[8]; 5×10^5 CFU/mL
  MIC against P. vulgaris: 25 µg/mL
[9]
  MIC: 12.5 µg/mL
[10]; 5×10^5 CFU/mL
  MIC against P. mirabilis: 50 µg/mL
[11]; 5×10^5 CFU/mL
  MIC against K. pneumonia: 12.5 µg/mL

## PRT1110 (RREQCRPLPCVHGGSCVDLWTHFRCDCARPHRGPTCA; listed as Homo sapiens)
[1]; [12]
  MIC S. marcescens: 25 µg/mL
[2]; [12]
  MIC E. cloacae: 50 µg/mL
[3]; [12]
  MIC P. aeruginosa: 25 µg/mL
[4]; [12]
  MIC E. coli BL21: 50 µg/mL
[5]; [12]
  MIC M. catarrhalis: 12.5 µg/mL
[6]; [12]
  MIC A. hydrophila: 12.5 µg/mL
[7]; [12]
  MIC C. diversus: 50 µg/mL
[8]; [12]
  MIC P. vulgaris: 50 µg/mL
[9]
  MIC: 25 µg/mL
[10]; [12]
  MIC P. mirabilis: 25 µg/mL
[11]; [12]
  MIC K. pneumonia: 12.5 µg/mL
